Columns and labels:
C57BL/6 mice = assay: oxygen-induced retinopathy in mice, retinopathy score by ADPase staining of retinal flat specimens; assay type: in vivo; conditions: score as percentage of solvent control (100%), n = 9 to 16
Method: Seven-day-old C57BL/6 mice were housed for five days with their mother in roughly 75% oxygen. Subsequently, the animals were housed for another five days after returning to ordinary air. While being housed in air, the animals were administered a test compound once a day. Following completion of administration, the animals were sacrificed by dislocation of the cervical vertebra followed by excision of the eyeball. The eyeballs were fixed in neutral formalin. After preparing flat specimens of the retina, vascular endothelium was stained by ADPase staining (Lutty, et al., Arch. Ophthalmol. 1992; 100: 267). After staining, retinopathy was scored in a blind study, and retinopathy was assessed for each of 12 retinal sections obtained by dividing the entire circumference of the retina into 12 equal sections centering about the papilla of the optic nerve. Assessments were made by scoring either the presence of retinopathy (score: 1) or the absence of retinopathy (score: 0), and determining the retinopathy score for each specimen based on the total score of the 12 sections. The score of each test compound was calculated as a percentage based on assigning a value of 100% for the score following administration of solvent. The test compounds consisted of (5-methyl-2-oxo-1,3-dioxolen-4-yl)methyl 4-(1-hydroxy-1-methylethyl)-2-propyl-1-[2′-(1H-tetrazol-5-yl)biphenyl-4-ylmethyl]imidazole-5-carboxylate (hereinafter, indicated as “Compound A”) for the medicament of the present invention, Candesartan cilexetil and Losartan.

[1] = test system: New Zealand White rabbits; assay: VEGF pellet-induced corneal neovascularization in rabbits; assay type: in vivo; conditions: dosage 10 mg/kg once a day for one week; AA = neovascularization density score (0 to 5) x length (mm); solvent control 0.72 ± 0.15; n = 3
Source text: Male New Zealand White rabbits were used in this example. The animals were anesthetized by administering suitable amounts of animal […] (registered trade mark) 50 and Celactal (registered trade mark). Moreover, the eyes were topically anesthetized by dropping 0.4% Benoxil (registered trade mark) opthalmic solution. The procedure was basically preformed in accordance with the method of Ziche, et al. (J. Clin. Invest. 1997 99: 2625-2634), and consisted of creating a pocket in the center of the cornea with a razor, and inserting a hydron pellet containing VEGF produced in advance into the pocket. A solution of the test compound was administered once a day for one week. Corneal neovascularization was photographed on the day after final administration of the test compound. Neovascularization was evaluated using the density and length of newly formed vessels as an index. Namely, neovascularization density was scored from 0 to 5 by referring to standard photographs corresponding to each score. The length of neovascularization was calculated by measuring the length (mm) of vessels uniformly extending from the corneal limbus towards the pellet based on a scale bar on the photograph. The value obtained by multiplying the neovascularization density score by the neovascularization length (mm) was used to indicate angiogenic activity (AA).

[2] = dosage 1 mg/kg once a day for five days
[3] = dosage 3 mg/kg once a day for five days
[4] = dosage 10 mg/kg once a day for five days
[5] = dosage 30 mg/kg once a day for five days

| SMILES | Retinopathy (%) (C57BL/6 mice; [2]) | Retinopathy (%) (C57BL/6 mice; [3]) | Retinopathy (%) (C57BL/6 mice; [4]) | Retinopathy (%) (C57BL/6 mice; [5]) | Angiogenic Activity (AA) [1] | Retinopathy (%) (C57BL/6 mice; dosage 100 mg/kg once a day for five days) |
| --- | --- | --- | --- | --- | --- | --- |
| CCOc1nc2cccc(C(=O)OC(C)OC(=O)OC3CCCCC3)c2n1Cc1ccc(-c2ccccc2-c2nnn[nH]2)cc1 (stereo not shown) [Candesartan cilexetil] | 84 ± 14 | 70 ± 12 | 56 ± 11 | 58 ± 11 |  |  |
| CCCc1nc(C(C)(C)O)c(C(=O)OCc2oc(=O)oc2C)n1Cc1ccc(-c2ccccc2-c2nnn[nH]2)cc1 [Compound A, (5-methyl-2-oxo-1,3-dioxolen-4-yl)methyl 4-(1-hydroxy-1-methylethyl)-2-propyl-1-[2′-(1H-tetrazol-5-yl)biphenyl-4-ylmethyl]imidazole-5-carboxylate] | 57 ± 13 | 40 ± 9 | 31 ± 7 | 32 ± 11 | 0.14 ± 0.11 |  |
| CCCCc1nc(Cl)c(CO)n1Cc1ccc(-c2ccccc2-c2nn[nH]n2)cc1 [Losartan] |  | 90 ± 11 | 54 ± 10 | 42 ± 9 |  | 40 ± 11 |

Reference: patent US20070203211A1, “Drug for preventing or treating angiogenic eye diseases” (SANKYO COMPANY, LIMITED, priority 2003, published 2007)
